“Also recorded” adds a separate entry of the source.

The test system of assay [1] is murine monocyte derived APCs. Description: Cytokine secretion in murine monocyte derived APCs (GM-CSF-pretreated monocytes). Format: cell-based. As to conditions: 18 hours.
Description: Specifically, cytokine production is shown in FIG. 21 for GM-CSF-pretreated monocytes that were stimulated for 18 hours with the immunoconjugates or equivalent amounts of the unconjugated components.
The test system of assay [2] is human antigen presenting cells. Description: Stimulation of human antigen presenting cells with free adjuvants, flow cytometry. As to conditions: peripheral blood APCs, 10-fold serial dilutions, 18 hours, 37° C. Format: cell-based. The procedure:
Peripheral blood antigen presenting cells (APCs) were stimulated with 10-fold serial dilutions of R848, Compound 2 or a control TLR agonist at 37° C. After 18 hours, cells were analyzed via flow cytometry. Data are presented as median fluorescence intensity of each indicated marker; n=3.
To determine if adjuvant functionalization impacted the capacity of Compound 2 or Compound 1 to elicit immune activation, human antigen presenting cells were stimulated with 10-fold serial dilutions of R848, Compound 2, Compound 1 or a control TLR agonist, CL307, for 18 hours prior to analysis via flow cytometry.
(In general: Flow cytometry measures light scatter and fluorescence of single cells or particles in a stream.)

A further assay concerns the target T1, human TLR7 (Homo sapiens, UniProt Q9NYK1).
T1 construct: expressed in transfected cells; host or cells: HEK293
T1 sequence (Q9NYK1 27-1049): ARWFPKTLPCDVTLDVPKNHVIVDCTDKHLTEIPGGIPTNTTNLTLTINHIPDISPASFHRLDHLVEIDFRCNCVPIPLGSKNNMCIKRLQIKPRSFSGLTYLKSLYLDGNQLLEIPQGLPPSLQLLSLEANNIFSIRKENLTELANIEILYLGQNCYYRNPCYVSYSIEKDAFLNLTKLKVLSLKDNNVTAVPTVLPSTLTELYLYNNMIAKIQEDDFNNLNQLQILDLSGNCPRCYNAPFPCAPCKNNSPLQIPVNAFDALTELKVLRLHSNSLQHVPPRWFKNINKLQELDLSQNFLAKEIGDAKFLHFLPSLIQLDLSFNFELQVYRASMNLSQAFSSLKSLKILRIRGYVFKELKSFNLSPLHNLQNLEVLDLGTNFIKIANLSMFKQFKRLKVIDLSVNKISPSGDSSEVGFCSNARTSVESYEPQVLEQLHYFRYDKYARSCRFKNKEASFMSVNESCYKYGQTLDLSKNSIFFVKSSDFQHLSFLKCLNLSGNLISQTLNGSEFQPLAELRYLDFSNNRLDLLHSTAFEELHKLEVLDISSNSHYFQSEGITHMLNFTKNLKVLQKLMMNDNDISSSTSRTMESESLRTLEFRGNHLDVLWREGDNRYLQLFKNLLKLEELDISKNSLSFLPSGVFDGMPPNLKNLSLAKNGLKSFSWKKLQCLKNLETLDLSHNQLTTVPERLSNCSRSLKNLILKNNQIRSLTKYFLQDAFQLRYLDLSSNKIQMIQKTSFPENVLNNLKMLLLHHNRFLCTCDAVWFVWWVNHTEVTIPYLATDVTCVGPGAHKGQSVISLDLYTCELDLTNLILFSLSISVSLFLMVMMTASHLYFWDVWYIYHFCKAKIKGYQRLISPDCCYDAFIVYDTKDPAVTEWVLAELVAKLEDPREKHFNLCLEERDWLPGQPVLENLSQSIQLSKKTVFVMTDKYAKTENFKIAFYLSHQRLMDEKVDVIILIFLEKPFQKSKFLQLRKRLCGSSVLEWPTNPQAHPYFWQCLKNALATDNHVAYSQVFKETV
Description: HEK293 TLR reporter (secreted embryonic alkaline phosphatase) assay. Format: cell-based. As to conditions: 2-fold serial dilutions, 12 hours at 37° C. The procedure:
(§1) HEK293 cells were co-transfected with human TLR7 or TLR8 (top two panels) or murine TLR7 (bottom panel) and an inducible secreted embryonic alkaline phosphatase reporter gene under the control of the IFN-β minimal promoter fused to NF-κB and AP-1 binding sites. Cells were subsequently incubated with 2-fold serial dilutions of the indicated adjuvant for 12 hours at 37° C. Activity was measured by spectrophotometry (OD 650 nm) following addition of alkaline phosphatase substrate.
(§2) Next, the capacity of each functionalized TLR agonist to activate human TLR7 or TLR8 was directly assayed. HEK293 cells were co-transfected with human TLR7 or TLR8 or murine TLR7 and an inducible secreted embryonic alkaline phosphatase reporter gene under the control of the IFN-β minimal promoter fused to NF-κB and AP-1 binding sites. Cells were subsequently incubated with 2-fold serial dilutions of each the indicated adjuvants for 12 hours at 37 C in the presence of an alkaline phosphatase substrate. Activity was measured by spectrophotometry (OD 650 nm).

The target in another assay is T2, murine TLR7 (Mus musculus, UniProt P58681).
T2 construct: expressed in transfected cells; host or cells: HEK293
T2 sequence (P58681 27-1050): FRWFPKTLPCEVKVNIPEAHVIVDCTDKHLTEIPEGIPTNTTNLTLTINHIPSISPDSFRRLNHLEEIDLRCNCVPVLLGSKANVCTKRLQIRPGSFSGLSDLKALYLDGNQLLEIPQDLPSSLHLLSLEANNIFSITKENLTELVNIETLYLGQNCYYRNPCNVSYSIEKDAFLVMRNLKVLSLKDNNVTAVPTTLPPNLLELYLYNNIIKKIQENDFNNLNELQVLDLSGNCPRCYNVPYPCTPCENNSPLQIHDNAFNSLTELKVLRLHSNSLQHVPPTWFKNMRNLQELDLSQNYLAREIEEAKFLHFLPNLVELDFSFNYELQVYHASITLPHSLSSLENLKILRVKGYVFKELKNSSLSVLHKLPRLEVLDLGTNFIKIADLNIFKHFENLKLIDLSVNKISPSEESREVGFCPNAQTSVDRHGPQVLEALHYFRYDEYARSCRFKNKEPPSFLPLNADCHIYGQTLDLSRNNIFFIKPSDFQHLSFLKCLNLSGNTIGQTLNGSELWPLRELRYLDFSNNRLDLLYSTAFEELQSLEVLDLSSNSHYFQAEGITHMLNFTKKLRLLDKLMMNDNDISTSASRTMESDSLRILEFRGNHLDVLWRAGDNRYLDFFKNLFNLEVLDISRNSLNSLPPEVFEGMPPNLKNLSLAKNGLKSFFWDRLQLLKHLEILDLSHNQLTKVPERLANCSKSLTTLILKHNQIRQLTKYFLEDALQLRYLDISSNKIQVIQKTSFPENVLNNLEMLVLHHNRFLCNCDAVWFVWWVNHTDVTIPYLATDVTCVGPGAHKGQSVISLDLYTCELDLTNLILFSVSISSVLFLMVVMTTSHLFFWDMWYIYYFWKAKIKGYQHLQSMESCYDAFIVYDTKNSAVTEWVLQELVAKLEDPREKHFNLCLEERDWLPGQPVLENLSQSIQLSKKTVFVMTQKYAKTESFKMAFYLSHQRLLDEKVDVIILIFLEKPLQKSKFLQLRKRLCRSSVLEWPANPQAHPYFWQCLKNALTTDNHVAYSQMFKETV
The description is as above. Format: cell-based. Conditions: 2-fold serial dilutions, 12 hours at 37° C. The procedure: as §1, §2

The next assay addresses T3, human TLR8 (Homo sapiens, UniProt Q9NR97).
T3 construct: expressed in transfected cells; host or cells: HEK293
T3 sequence (Q9NR97 27-1041): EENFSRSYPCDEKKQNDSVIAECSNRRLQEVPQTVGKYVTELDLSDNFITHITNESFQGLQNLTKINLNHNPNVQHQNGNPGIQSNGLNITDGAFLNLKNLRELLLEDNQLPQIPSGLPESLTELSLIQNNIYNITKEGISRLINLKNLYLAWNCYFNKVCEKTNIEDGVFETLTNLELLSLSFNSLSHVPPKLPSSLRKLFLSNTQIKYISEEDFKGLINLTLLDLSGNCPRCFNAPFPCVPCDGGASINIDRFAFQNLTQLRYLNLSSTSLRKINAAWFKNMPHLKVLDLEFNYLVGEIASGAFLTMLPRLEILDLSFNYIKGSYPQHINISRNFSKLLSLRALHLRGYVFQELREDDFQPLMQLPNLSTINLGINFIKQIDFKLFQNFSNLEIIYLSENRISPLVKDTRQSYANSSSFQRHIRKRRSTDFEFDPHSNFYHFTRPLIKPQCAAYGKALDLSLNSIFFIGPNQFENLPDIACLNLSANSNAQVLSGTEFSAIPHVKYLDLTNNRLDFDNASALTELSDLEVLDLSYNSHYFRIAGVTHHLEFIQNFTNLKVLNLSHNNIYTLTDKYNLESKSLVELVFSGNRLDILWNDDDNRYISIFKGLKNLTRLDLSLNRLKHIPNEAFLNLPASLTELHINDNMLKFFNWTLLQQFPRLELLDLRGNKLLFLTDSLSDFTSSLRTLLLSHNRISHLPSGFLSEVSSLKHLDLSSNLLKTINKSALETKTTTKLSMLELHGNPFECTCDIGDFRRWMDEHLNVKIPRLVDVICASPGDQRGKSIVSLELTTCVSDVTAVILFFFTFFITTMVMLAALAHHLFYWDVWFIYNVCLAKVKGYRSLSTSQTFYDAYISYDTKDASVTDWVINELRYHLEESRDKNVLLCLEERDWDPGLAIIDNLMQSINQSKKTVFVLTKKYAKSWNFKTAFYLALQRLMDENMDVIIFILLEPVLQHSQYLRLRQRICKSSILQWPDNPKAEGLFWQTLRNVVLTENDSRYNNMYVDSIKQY
Described as above. Conditions: 2-fold serial dilutions, 12 hours at 37° C. Format: cell-based. The procedure:
as §1, §2

The test system of assay [3] is recombinant human CD16a protein. The assay is described as follows: ELISA binding to CD16a. Conditions: titration. The procedure: Maxysorp ELISA plates were coated overnight with 1.5 ug/ml recombinant human CD16a protein (R&D Systems 4325-FC-050). Plates were blocked with PBS containing 1% BSA, and incubated with a titration of antibodies or antibody immunoconjugates. Bound antibodies were detected with Peroxidase conjugated AffiniPure F(ab′)2 Fragment Goat Anti-Human IgG (Jackson 109-036-003). TMB (Fisher PI34028) was added to the wells and absorbance at 450 nm was measured after stopping the reaction with TMB stop solution (Fisher NC1291012).

For assay [4], the target named is T4, recombinant human CD64 protein (Homo sapiens, UniProt P12314).
T4 construct: purchased R&D Systems
The assay is described as follows: ELISA binding to CD64. Conditions: titration. The procedure:
Maxysorp ELISA plates were coated overnight with 1.5 ug/ml recombinant human CD64 protein (R&D Systems). Plates were blocked with PBS containing 1% BSA, and incubated with a titration of Rituximab or Rituximab immunoconjugates (Rituximab BB-01). Bound antibodies were detected with Peroxidase conjugated AffiniPure F(ab′)2 Fragment Goat Anti-Human IgG (Jackson) using TMB color development and absorbance at 450 nm was measured after stopping the reaction.
For orientation: In an ELISA, binding on a coated surface is turned into a signal by an enzyme label.

T4 sequence (P12314 16-374): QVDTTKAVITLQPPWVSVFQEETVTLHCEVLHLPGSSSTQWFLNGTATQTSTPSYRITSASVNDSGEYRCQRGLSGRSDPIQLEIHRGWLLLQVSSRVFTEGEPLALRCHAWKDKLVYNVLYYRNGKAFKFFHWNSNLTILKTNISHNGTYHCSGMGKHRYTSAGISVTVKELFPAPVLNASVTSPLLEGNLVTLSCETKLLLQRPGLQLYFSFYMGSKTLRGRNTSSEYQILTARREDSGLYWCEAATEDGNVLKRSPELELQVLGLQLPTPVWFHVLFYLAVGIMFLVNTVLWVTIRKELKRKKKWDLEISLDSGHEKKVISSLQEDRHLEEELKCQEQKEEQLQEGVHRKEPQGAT

Consider `CCCCc1nc2c(N)nc3ccccc3c2n1CCCCN` [Compound 1], for which the “cytokine response (TNFα, IL-6, IL-12p70)” value in assay [1] is given as “failed to produce any cytokine response”. For the same molecule, the “myeloid cell activation (median fluorescence intensity of activation markers)” value in assay [2] is listed as “performed similarly to R848”. Besides, the “human TLR7 activation (OD 650 nm)” value on human TLR7 is “activated both human TLR7 and TLR8”. Moreover, the “murine TLR7 activation (OD 650 nm)” value on murine TLR7 is on record as “activated murine TLR7”. Further, the “human TLR8 activation (OD 650 nm)” value at human TLR8 was “activated both human TLR7 and TLR8”.

In the case of `CCCCc1nc2c(N)nc3ccccc3c2n1CCCCN1C(=O)C=CC1=O` [Compound 2], the “myeloid cell activation (median fluorescence intensity of activation markers)” value in assay [2] is recorded as “performed similarly to R848; also recorded: potent inducer of myeloid cell activation”. On human TLR7, the “human TLR7 activation (OD 650 nm)” value was “specific for TLR7 activity”. The “murine TLR7 activation (OD 650 nm)” value on murine TLR7 was “activated murine TLR7”. Moreover, the “human TLR8 activation (OD 650 nm)” value at human TLR8 is “specific for TLR7 activity”.

With “aglycosyl Rituximab: aglycosyl Rituximab (Invivogen hcd20-mab12)”, the “binding to CD16a (fraction of maximal OD signal)” value in assay [3] was “diminished binding”.

In the case of “deglycosylated Rituximab: Rituximab deglycosylated with PNGase F”, the “binding to CD64” value in assay [4] is “impaired binding to CD64”.
